Source: patent US4310532A, “Methods and piperidinyl-alkyl-benzamide composition for inhibiting H2 histamine receptors” (The University of Toledo, priority 1980, dated 1982)
In brackets after ≈: the same amount, converted by molar mass. Where two headings read alike, the source gives them in different places.

Columns and labels:
histamine H2 receptor [1] = target: T1, histamine H2 receptor (Cavia porcellus, UniProt P47747); assay: histamine H2 antagonism activity on the isolated guinea pig atrium (chronotropic response to histamine); assay type: cell-based, guinea pig (Hartley strain); conditions: experimental compound 10 μg/ml, histamine 0.05-2.5 μg/ml
T1 construct: histamine chronotropic response
Protocol: The histamine H2 antagonism activity of these piperidinyl-alkyl-benzamide compounds was tested on the isolated guinea pig atrium. The atria from Hartley strain guinea pigs were dissected and suspended in 25 ml of McEwen's solution and attached to a transducer. Spontaneous atrial rate was determined from the recorder tracing. Chronotropic responses to increasing concentrations of histamine (0.05-2.5 μg/ml) were evaluated in the presence of placebo or experimental compound. Results are expressed in Table I as the ratio of concentration of histamine required to increase atrial rate by 50 beats/minute:concentration of histamine required to increase atrial rate by 50 beats/minute in the presence of experimental compound, 10 μg/ml.

histamine H2 receptor [2] = assay: histamine H2 antagonist activity in vivo: block of histamine-stimulated gastric acid secretion in the lumen-perfused anesthetized rat; design: species or system rat (Sprague Dawley); conditions: urethane-anesthetized rat; antagonist 0.24 mg/kg rapid I.V.; histamine 0.13 μmol/kg/hr; compounds as hydrochloride salts
Protocol: Sprague Dawley rats weighing between 150-200 g were used for the evaluations. Perfusion was carried out with 5% glucose solution at 37° C. Administration of histamine and test compounds was carried out by rapid I.V. injection via cannulated jugular vein. Doses of 0.13 μmol/kg/hr. of histamine were used, and 0.24 mg/kg of antagonist test compound.

isolated rat uterus = assay: block of the contractile response to histamine of the isolated rat uterus; assay type: cell-based, rat (Sprague Dawley, female); conditions: read-out: EC50 (concentration of experimental compound required to block the contractile effect of histamine by 50%)
Protocol: Further evaluation involved testing the ability of the piperidinyl-alkyl-benzamides to block the response to histamine by the isolated rat uterus. Female Sprague Dawley rats weighing approximately 150 g were injected with diethylstilbesterol (0.15 mg/rat) fifteen hours prior to sacrifice. […] The results are expressed as the % change in the contractile response to histamine relative to placebo-histamine evaluation in Table III.

histamine H2 receptor [3] = assay: histamine H2-receptor antagonist activity in standard pharmacological tests (Tables I, II and III); conditions: result in words
Protocol: The histamine H2 antagonism activity of these piperidinyl-alkyl-benzamide compounds was tested on the isolated guinea pig atrium. The atria from Hartley strain guinea pigs were dissected and suspended in 25 ml of McEwen's solution and attached to a transducer. Spontaneous atrial rate was determined from the recorder tracing. Chronotropic responses to increasing concentrations of histamine (0.05-2.5 μg/ml) were evaluated in the presence of placebo or experimental compound. […]
The piperidine-alkyl-benzamides, as their hydrochloride salts, were evaluated for histamine H2 antagonist activity, in vivo, by their ability to block the stimulation of acid secretion by histamine from the lumen-perfused anesthetized (urethane) rat preparation as described in Ash and Shield, Br. J. Pharmacol. Chemotherapy 27, 427 (1966) and Durant, et al., J. Med. Chem. 18, 905 (1975). […]
Further evaluation involved testing the ability of the piperidinyl-alkyl-benzamides to block the response to histamine by the isolated rat uterus. […] Contractile responses were evaluated after the addition of placebo; after the addition of experimental compounds; and after the addition of histamine (25 μg/ml). The results are expressed as the % change in the contractile response to histamine relative to placebo-histamine evaluation in Table III. […]
The product was evaluated according to Tables I, II, and III above.

[4] = isolated rat uterus, histamine 25 μg/ml, diethylstilbesterol-primed

T1 sequence (P47747 whole entry): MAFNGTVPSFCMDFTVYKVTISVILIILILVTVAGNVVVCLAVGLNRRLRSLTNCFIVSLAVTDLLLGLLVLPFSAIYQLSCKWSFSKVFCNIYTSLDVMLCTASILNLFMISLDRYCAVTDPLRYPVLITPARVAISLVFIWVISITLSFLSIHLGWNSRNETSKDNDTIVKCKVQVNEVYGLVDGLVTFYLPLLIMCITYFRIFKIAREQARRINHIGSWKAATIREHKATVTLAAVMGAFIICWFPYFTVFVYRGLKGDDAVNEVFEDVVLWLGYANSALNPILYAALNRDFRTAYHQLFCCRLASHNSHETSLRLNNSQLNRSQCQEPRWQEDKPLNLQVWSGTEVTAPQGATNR

Row | Compound | HISTAMINE RATIO (concentration of histamine required to increase atrial rate by 50 beats/minute : same in the presence of experimental compound) (histamine H2 receptor [1]) | MEAN % INHIBITION OF GASTRIC ACID SECRETION (histamine H2 receptor [2]) [%] | EC50 (isolated rat uterus; Rattus norvegicus) [µg/mL] | histamine H2-receptor antagonist activity (histamine H2 receptor [3]) | EC50 (isolated rat uterus; [4]) [µg/mL]
1 | CN/C(=N/CCSCc1nc[nH]c1C)NC#N [Cimetidine, reference compound] | 0.0025 | 78 ± 8 | 0.3 (≈ 1.19 µM) |  | 
2 | O=C(NCC1CCNCC1)c1ccccc1 [Example 1, N-(4-Piperidinylmethyl)benzamide] | 0.005 | 40 ± 6 |  | significant amount of histamine H2 --receptor antagonist activity | 0.38 (≈ 1.74 µM)
3 | Cc1ccc(C(=O)NCC2CCNCC2)cc1 [Example 2, N-(4-piperidinylmethyl)-p-methylbenzamide] | 0.004 | 52 ± 5 |  |  | 0.31 (≈ 1.33 µM)
